From US6831069B2, “Pyrrolo[2,3-d]pyrimidine nucleoside analogs” (priority 1999, dated 2004)
Several values for one entry are separate records, joined by “and”; a condition that tells them apart may be missing. Identical values can stand only once. Like-named read-outs stand apart in the source and are kept apart here.

Experiments:
[1] = tested on: activated peripheral human T cells; assay: Extracellular cytokine analyses (ELISA) in PMA-ION activated peripheral human T cells; assay type: cell-based; design: secreted IL-4, increase over activated control / IFNγ, decrease over activated control: concentration or dose not given beside the values; conditions: for heightened IL-4 production / reduced levels of secreted IFNγ: PMA-ION; for IFNγ, decrease over activated control / secreted IL-4, increase over activated control: 48 h PMA-ION
[2] = tested on: BALB/c and C57BL/6 lymph node CD4+ T cells; assay: Generation of murine Th1 cells, IL-4 and IFNγ ELISA after restimulation; assay type: cell-based, mouse; design: murine IFNγ secretion upon restimulation: dose or concentration left out as unconfirmed; conditions: Th1 conditions (anti-CD3, IL-2, IFNγ, IL-12), both mouse strains
[3] = tested on: BALB/c mice; assay: Contact hypersensitivity (CHS) to DNFB; assay type: in vivo, mouse; conditions: for mean decrease in ear thickness (inhibition of CHS): 24 h post-challenge
Procedure: Reactivity to the contact allergen, DNFB, was determined, in BALB/c mice, as previously described (Ishii, N., K. Takahashi, H. Nakajima, S. Tanaka, P. W. Askenase. 1994. DNFB contact sensitivity (CS) in BALB/c and C3H/He mice. J. Invest. Dermatol. 102:321). Briefly, mice were sensitized by application of 20 μl of 0.3% DNFB in acetone: olive oil, 4:1 onto the shaved abdomens of naive mice. For optimal elicitation of CHS, the mice were challenged on both sides of each ear with 20 μl of 0.12% DNFB, five days after sensitization. Unsensitized mice were also challenged and used as controls in each experiment. After 24 h, ear thickness measurements were taken and response to DNFB was assessed by subtracting […]. Where indicated, 7-β-D-ribofuranosyl-4-oxopyrrolo-[2,3-d]pyrimidine-5-carboxamidine, at a dose of 6.2 μg in 50 μl PBS (0.3 mg/kg) or 12.4 μg in 100 μl PBS (0.6 mg/kg), was administered by i.p. injection at the time of challenge with DNFB. These doses of 7-β-D-ribofuranosyl-4-oxopyrrolo[2,3-d]pyrimidine-5-carboxamidine gave maximal effect in preliminary optimization studies. Following final ear thickness measurements, mice were sacrificed by cervical dislocation and axillary/lateral axillary lymph nodes were removed. Following isolation of total cellular RNA from isolated lymph node cells, RT-PCR and Southern Blot analyses were performed to monitor for mouse IFNg, IL-2, and IL-10 mRNA levels.
Total cellular RNA was extracted using Trizol reagent (Life Technologies, Gaithersburg, Md.). The cDNA synthesis reaction was performed using oligo (dT)12-18 primer and Superscript II (Life Technologies) reverse transcriptase. The PCR reaction (GeneAmp PCR kit, Perkin-Elmer, Foster City, Calif.) consisted of a 50 μl mixture containing cDNA, dNTPs (each at 200 μM), 0.5 μM of each primer pair and 1.25 unit of Taq polymerase. The primers for human IL-2, IL-10, IL-4, IL-6, IL-1b, IFNg, c-myc, IL-2R, CD40L (Stratagene, La Jolla, Calif.), iNOS (Clontech, Palo Alto, Calif.) and pHE7 ribosomal gene were used. Typical amplification conditions included a 5-minute denaturation at 94° C. and a 5 minute annealing at 60° C. followed by 35 cycles of 1.5 min at 72° C., 45 sec at 94° C. and 45 sec at 60° C., with a final extension time of 10 min at 72° C. The primers for mouse IL-2, IFNγ, and β-actin were obtained from Stratagene and mouse IL-10 from Clontech. Amplification conditions for the Stratagene mouse cytokine primers were a 5 min denaturation at 94° C. and a 5 min annealing at 60° C. followed by 35 cycles of 1.5 min at 72° C., 45 sec at 94° C. and 45 sec at 60° C., with a final extension time of 10 min at 72° C. For IL-10, the PCR conditions were a 5-minute denaturation at 94° C. followed by 35 cycles of 45 sec at 94° C., 45 sec at 60° C. and 2 min at 72° C., with a final extension time of 7 min at 72° C.
For each gene product, the optimum cDNA dilution was determined experimentally and was defined as the cDNA dilution that would achieve a detectable concentration that was well below saturating conditions. […] Equivalent loading was assessed following hybridization with a probe generated from pHE7 sense primer. Washed blots were then analyzed using a Phosphorimager (Biorad, Richmond, Calif.). Relative changes in cytokine or other test mRNA were presented as densitometric readings and normalized for any variations in input RNA by determining the densitometric ratio of mRNA of interest relative to mRNA of the housekeeping gene, pHE7.

[4] = tested on: BALB/c mice; conditions: mouse, in vivo
[5] = 10 μM, 48 h, representative of five donors
[6] = 10 μM, T cells of 16 RA patients
[7] = 10 μM, T cells of 16 normal donors
[8] = lymph node cells, DNFB-primed mice

N=C(N)c1cn([C@@H]2O[C@H](CO)[C@@H](O)[C@H]2O)c2nc[nH]c(=O)c12 [ICN 10776, 7-β-D-ribofuranosyl-4-oxopyrrolo-[2,3-d]pyrimidine-5-carboxamidine]
peak enhancement of PMA-ION-induced IL-4 level [1, 5]: 166% | peak enhancement of PMA-ION-induced IL-5 level [1, 5]: 77% | heightened IL-4 production [1, 6]: 192% | reduced levels of secreted IFNγ [1, 6]: 63% | heightened IL-4 production [1, 7]: 266% | reduced levels of secreted IFNγ [1, 7]: 43% | peak suppression of PMA-ION-induced IFNγ level ([1]; 20 μM, 48 h): 72% | peak suppression of PMA-ION-induced IL-2 level ([1]; 20 μM, 48 h): 62% | peak suppression of PMA-ION-induced TNFα level ([1]; 20 μM, 48 h): 78% | IFNγ, decrease over activated control ([1]; CD4+ T cells): 81% | secreted IL-4, increase over activated control ([1]; CD4+ T cells): 994% | IFNγ, decrease over activated control ([1]; CD8+ T cells): 37% | secreted IL-4, increase over activated control ([1]; CD8+ T cells): 228% | IFNγ, decrease over activated control ([1]; total T cells): 52% | secreted IL-4, increase over activated control ([1]; total T cells): 320% | murine IL-4 secretion upon restimulation ([2]; co-incubation with 10 mM ICN 10776): elevated levels of IL-4 | murine IFNγ secretion upon restimulation ([2]; co-incubation with ICN 10776): low levels of IFNγ | mean decrease in ear thickness (inhibition of CHS) ([3]; 0.3 mg/kg i.p. at time of challenge): 42% | mean decrease in ear thickness (inhibition of CHS) ([3]; 0.6 mg/kg i.p. at time of challenge): 68% | IFNγ mRNA levels [3, 8]: substantially reduced | IL-2 mRNA levels [3, 8]: substantially reduced | murine IL-10 mRNA expression [3, 8]: greatly enhanced | IFNγ mRNA levels [4]: substantially reduced | mean decrease in serum nitrite levels [4]: 54% and 78% | murine IL-10 mRNA expression [4]: greatly enhanced
